Laboratory results: PMC10447463, “Data-mining unveils structure–property–activity correlation of viral infectivity enhancing self-assembling peptides” (Nature Communications, 2023)
Read-outs that look alike come from different tables or passages of the source.

How the values were obtained:
[1] = test system: HIV-1 infection of TZM-bl cells; assay: HIV-1 infectivity enhancement assay, β-galactosidase luminescence; format: cell-based; details: for Rel-EFC / Log10 Infection Rel EFC: 1.3 µM peptide; for Rel-EFC: infection relative to EF-C (QCKIKQIINMWQ = 1); for Log10 Infection Rel EFC: log10 of infection relative to EF-C; for Log Infectivity: Log10 infection relative to EF-C, TZM-bl cells, asymmetric std dev errors; for Log10 Infection Rel EF-C: HIV-1 infection of TZM-bl cells; for Abs. Inf.: absolute infection signal, HIV-1 on TZM-bl cells, β-galactosidase luminescence; for Log10 Inf. rel. to EF-C: log10 of HIV-1 infection of TZM-bl cells relative to EF-C (EF-C = 0)
[2] = format: physicochemical; details: for ThT Cat. / ThT-Fluorescence (categorical): ThT-active if fluorescence at least twice the control
In short: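 Preformed peptide fibrils (1 mg/mL) mixed with 50 µM ThT in PBS, 15 min at RT, fluorescence ex 440/em 488 nm versus PBS blank, triplicates. Zeta potential: peptides at 1 mg/mL in PBS pH 7.4, aged 1 d at RT, diluted in 1 mM KCl, Smoluchowski from electrophoretic mobility.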

[3] = β-sheet content by ATR-FT-IR; format: physicochemical; details: Fig. S7 panel A; β-sheet content by ATR-FT-IR
In short: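 Measurements on freeze-dried PNF powders used a diamond ATR element, 64 scans each, with β-sheet fraction derived as previously reported. CR reflects loss of fluorescamine-reactive monomer after 3 kDa ultrafiltration, averaged over triplicates.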

[4] = Fig. S7 panel A (plotted against β-sheet content)
[5] = Fig. S7 panel B (plotted against CR), rounded to two decimals
[6] = Log10 of infection rate relative to EF-C, Figure 3A source data
[7] = infection rate relative to EF-C, log10, data of Figure 2D
[8] = infection rate relative to EF-C, log10, source data of Figure 2C

Substance | Rel-EFC [1] | Log10 Infection Rel EFC [1] | Log Infectivity [1, 4] | Log Infectivity [1, 5] | Log10 Infection Rel EF-C [1, 6] | Log10 Infection Rel EF-C [1, 7] | Log10 Infection Rel EF-C [1, 8] | Abs. Inf. [1] | Log10 Inf. rel. to EF-C [1] | Tht category (> 2 to blank = +) ([2]; Fig S10 panel D) | ThT Cat. ([2]; Fig S10 panel E) | Tht category (> 2 to blank = +) ([2]; FigS12 panel A) | ThT Cat, ([2]; FigS12 panel B) | ThT Cat, ([2]; ThT category, 1 if Rel. ThT >2) | ThT Cat. ([2]; ThT category, 1 if Rel. ThT >2) | ThT Cat. / ThT-Fluorescence (categorical) [2] | b -sheet / % [3] [%]
RLRLTLC | 0,05 | -1,29 | -1.288 | -1.29 | -1.29 | -1.288 | -1.288 | 1334 | -1.288 | 0 (ThT-inactive (N-Fold <2)) | 0 (ThT-inactive (N-Fold <2)) | 0 (ThT-inactive (N-Fold <2)) | 0 (ThT-inactive (N-Fold <2)) | 0 (ThT-inactive (N-Fold <2)) | 0 (ThT-inactive (N-Fold <2)) | 0 (ThT-inactive (N-Fold <2)) | 20.6858
RPRGLLLGNLR | 0,05 | -1,32 | -1.3163 |  | -1.32 | -1.3163 | -1.3163 | 716.7 | -1.3163 | 0 (ThT-inactive (N-Fold <2)) |  | 0 (ThT-inactive (N-Fold <2)) | 0 (ThT-inactive (N-Fold <2)) | 0 (ThT-inactive (N-Fold <2)) | 0 (ThT-inactive (N-Fold <2)) | 0 (ThT-inactive (N-Fold <2)) | 13.82
SISISRRI | 0,03 | -1,55 | -1.548 | -1.55 | -1.55 | -1.548 | -1.548 | 313.3 | -1.548 | 0 (ThT-inactive (N-Fold <2)) | 0 (ThT-inactive (N-Fold <2)) | 0 (ThT-inactive (N-Fold <2)) | 0 (ThT-inactive (N-Fold <2)) | 0 (ThT-inactive (N-Fold <2)) | 0 (ThT-inactive (N-Fold <2)) | 0 (ThT-inactive (N-Fold <2)) | 48.78
TKTLTKTL | 0,02 | -1,67 | -1.671 |  | -1.67 | -1.671 | -1.671 | 316.7 | -1.671 | 0 (ThT-inactive (N-Fold <2)) |  | 0 (ThT-inactive (N-Fold <2)) | 0 (ThT-inactive (N-Fold <2)) | 0 (ThT-inactive (N-Fold <2)) | 0 (ThT-inactive (N-Fold <2)) | 0 (ThT-inactive (N-Fold <2)) | 34.38
